Legend:
[1] = system: wild oat; assay: Test B pre/postemergence wild oat; format: in vivo, Avena fatua
In short: (§1)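 Response is a visual 0-to-10 score relative to untreated plants, where 0 means no effect and 10 means complete control, taken twelve to sixteen days after application. Treatments went onto soil at planting and onto foliage of 1- to 4-leaf plants, using a surfactant-containing non-phytotoxic solvent.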

[2] = system: purple nutsedge; assay: Test B pre/postemergence purple nutsedge; format: in vivo, Cyperus rotundus
In short: as §1

[3] = system: rice; assay: Test B flood test rice; format: in vivo, Oryza sativa
In short: (§2)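 Read-out is a visual response score from 0 (no effect) to 10 (complete control), assigned by comparison with untreated controls. Treatment was applied at the 2-leaf stage, and plants stayed in the greenhouse for twelve to sixteen days before scoring.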

[4] = system: blackgrass; assay: Test B pre/postemergence blackgrass; format: in vivo, Alopecurus myosuroides
In short: as §1

[5] = system: pigweed; assay: Test B pre/postemergence pigweed; format: in vivo, Amaranthus retroflexus
In short: as §1

[6] = system: bedstraw; assay: Test B pre/postemergence bedstraw; format: in vivo, Galium aparine
In short: as §1

[7] = system: surinam grass; assay: Test B pre/postemergence surinam grass; format: in vivo, Brachiaria decumbens
In short: as §1

[8] = system: sugar beet; assay: Test B pre/postemergence sugar beet; format: in vivo, Beta vulgaris
In short: as §1

[9] = system: cocklebur; assay: Test B pre/postemergence cocklebur; format: in vivo, Xanthium strumarium
In short: as §1

[10] = system: corn; assay: Test B pre/postemergence corn; format: in vivo, Zea mays
In short: as §1

[11] = system: rape; assay: Test B pre/postemergence rape; format: in vivo, Brassica napus
In short: as §1

[12] = system: soybean; assay: Test B pre/postemergence soybean; format: in vivo, Glycine max
In short: as §1

[13] = system: bamyardgrass; assay: Test B flood test barnyardgrass; format: in vivo, Echinochloa crus-galli
In short: as §2

[14] = system: morningglory; assay: Test B pre/postemergence morningglory; format: in vivo, Ipomoea hederacea
In short: as §1

[15] = system: smallflower flatsedge; assay: Test B flood test smallflower flatsedge; format: in vivo, Cyperus difformis
In short: as §2

[16] = system: velvetleaf; assay: Test B pre/postemergence velvetleaf; format: in vivo, Abutilon theophrasti
In short: as §1

[17] = Postemergence, Rate 62 g/ha, scale 0 to 10, 0 is no effect, 10 is complete control
[18] = Postemergence, Rate 250 g/ha, scale 0 to 10, 0 no effect, 10 complete control
[19] = Preemergence, Rate 125 g/ha, scale 0 to 10 (0 no effect, 10 complete control)
[20] = Preemergence, Rate 250 g/ha, scale of 0 to 10 where 0 is no effect and 10 is complete control
[21] = Preemergence, Rate 500 g/ha, scale 0 (no effect) to 10 (complete control)
[22] = Rate 125 g/ha, Postemergence, scale 0 to 10, 0 no effect, 10 complete control
[23] = Preemergence, Rate 62 g/ha, scale 0 to 10, 0 is no effect, 10 is complete control
[24] = Rate 500 g/ha, Postemergence, 0 to 10 scale (0 no effect, 10 complete control)
[25] = Rate 125 g/ha, Postemergence section (flood test species), scale 0 to 10, 0 no effect, 10 complete control
[26] = Rate 125 g/ha, Pre-emergence, flood test species, scale 0 to 10 where 0 is no effect and 10 is complete control
[27] = Rate 250 g/ha, headed Pre-emergence (flood test species), scale 0 to 10 (0 no effect, 10 complete control)
[28] = Rate 500 g/ha, Postemergence section of Table B, 0 to 10 scale (0 no effect, 10 complete control)
[29] = Rate 500 g/ha, headed Pre-emergence (flood test species), scale 0 to 10 (0 no effect, 10 complete control)
[30] = Rate 1000 g/ha, Pre-emergence (as headed), scale 0 to 10
[31] = flood test, listed under Postemergence, Rate 250 g/ha, scale 0 to 10, 0 no effect, 10 complete control

## COc1ccc(-n2c(=O)on(C(=O)N(c3ccc(F)cc3)C(C)C)c2=O)c(C)c1 [Compound 35]
[1]; [17]
  Wild oats plant response rating: 0
[1]; [18]
  Wild oats plant response rating: 0
[1]; [19]
  Plant response rating, Wild oats: 0
[1]; [20]
  Plant response rating, Wild oats: 2
[1]; [21]
  Wild oats plant response rating: 6
[1]; [22]
  Wild oats plant response rating: 0
[2]; [17]
  Nutsedge plant response rating: 0
[2]; [18]
  Nutsedge plant response rating: 0
[2]; [23]
  Plant response rating, Nutsedge: 0
[2]; [19]
  Plant response rating, Nutsedge: 0
[2]; [20]
  Plant response rating, Nutsedge: 0
[2]; [21]
  Nutsedge plant response rating: 0
[2]; [22]
  Nutsedge plant response rating: 0
[2]; [24]
  Nutsedge plant response rating: 0
[3]; [17]
  Rice plant response rating: 0
[3]; [25]
  Rice plant response rating: 0
[3]; [26]
  Rice plant response rating: 0
[3]; [27]
  Rice plant response rating: 0
[3]; [28]
  Rice plant response rating: 0
[3]; [29]
  Plant response rating, Rice: 0
[3]; [30]
  Rice plant response rating: 0
[3]; [31]
  Rice plant response rating: 0
[4]; [17]
  Blackgrass plant response rating: 0
[4]; [18]
  Blackgrass plant response rating: 1
[4]; [23]
  Plant response rating, Blackgrass: 0
[4]; [19]
  Plant response rating, Blackgrass: 2
[4]; [20]
  Plant response rating, Blackgrass: 2
[4]; [21]
  Blackgrass plant response rating: 3
[4]; [22]
  Blackgrass plant response rating: 0
[4]; [24]
  Blackgrass plant response rating: 7
[5]; [17]
  Redroot pigweed plant response rating: 0
[5]; [18]
  Redroot pigweed plant response rating: 9
[5]; [23]
  Plant response rating, Redroot pigweed: 0
[5]; [19]
  Plant response rating, Redroot pigweed: 0
[5]; [20]
  Plant response rating, Redroot pigweed: 0
[5]; [21]
  Redroot pigweed plant response rating: 0
[5]; [22]
  Redroot pigweed plant response rating: 7
[5]; [24]
  Redroot pigweed plant response rating: 9
[6]; [17]
  Bedstraw plant response rating: 0
[6]; [18]
  Bedstraw plant response rating: 3
[6]; [23]
  Plant response rating, Bedstraw: 0
[6]; [19]
  Plant response rating, Bedstraw: 0
[6]; [20]
  Plant response rating, Bedstraw: 0
[6]; [21]
  Bedstraw plant response rating: 0
[6]; [22]
  Bedstraw plant response rating: 2
[6]; [24]
  Bedstraw plant response rating: 6
[7]; [17]
  B. signalgrass plant response rating: 0
[7]; [18]
  B. signalgrass plant response rating: 0
[7]; [23]
  Plant response rating, B. signalgrass: 0
[7]; [19]
  Plant response rating, B. signalgrass: 0
[7]; [20]
  Plant response rating, B. signalgrass: 3
[7]; [21]
  B. signalgrass plant response rating: 7
[7]; [22]
  B. signalgrass plant response rating: 0
[7]; [24]
  B. signalgrass plant response rating: 0
[8]; [17]
  Sugarbeets plant response rating: 0
[8]; [23]
  Plant response rating, Sugarbeets: 0
[8]; [19]
  Plant response rating, Sugarbeets: 0
[8]; [20]
  Plant response rating, Sugarbeets: 0
[8]; [21]
  Sugarbeets plant response rating: 0
[8]; [22]
  Sugarbeets plant response rating: 3
[9]; [17]
  Cocklebur plant response rating: 0
[9]; [18]
  Cocklebur plant response rating: 4
[9]; [23]
  Plant response rating, Cocklebur: 0
[9]; [19]
  Plant response rating, Cocklebur: 0
[9]; [20]
  Plant response rating, Cocklebur: 0
[9]; [21]
  Cocklebur plant response rating: 0
[9]; [22]
  Cocklebur plant response rating: 2
[9]; [24]
  Cocklebur plant response rating: 5
[10]; [17]
  Corn plant response rating: 0
[10]; [18]
  Corn plant response rating: 0
[10]; [23]
  Plant response rating, Corn: 0
[10]; [19]
  Plant response rating, Corn: 0
[10]; [20]
  Plant response rating, Corn: 0
[10]; [21]
  Corn plant response rating: 0
[10]; [22]
  Corn plant response rating: 0
[10]; [24]
  Corn plant response rating: 0
[11]; [17]
  Rape plant response rating: 0
[11]; [18]
  Rape plant response rating: 0
[11]; [23]
  Plant response rating, Rape: 0
[11]; [19]
  Plant response rating, Rape: 0
[11]; [20]
  Plant response rating, Rape: 0
[11]; [21]
  Rape plant response rating: 0
[11]; [22]
  Rape plant response rating: 0
[11]; [24]
  Rape plant response rating: 2
[12]; [17]
  Soybean plant response rating: 1
[12]; [18]
  Soybean plant response rating: 1
[12]; [23]
  Plant response rating, Soybean: 0
[12]; [19]
  Plant response rating, Soybean: 0
[12]; [20]
  Plant response rating, Soybean: 0
[12]; [21]
  Soybean plant response rating: 0
[12]; [22]
  Soybean plant response rating: 1
[13]; [17]
  Barnyardgrass plant response rating: 0
[13]; [25]
  Barnyardgrass plant response rating: 0
[13]; [26]
  Barnyardgrass plant response rating: 0
[13]; [27]
  Barnyardgrass plant response rating: 0
[13]; [28]
  Barnyardgrass plant response rating: 0
[13]; [29]
  Plant response rating, Barnyardgrass: 0
[13]; [30]
  Barnyardgrass plant response rating: 0
[13]; [31]
  Barnyardgrass plant response rating: 0
[14]; [17]
  Morningglory plant response rating: 4
[14]; [18]
  Morningglory plant response rating: 8
[14]; [23]
  Plant response rating, Morningglory: 0
[14]; [19]
  Plant response rating, Morningglory: 0
[14]; [20]
  Plant response rating, Morningglory: 0
[14]; [21]
  Morningglory plant response rating: 0
[14]; [22]
  Morningglory plant response rating: 7
[14]; [24]
  Morningglory plant response rating: 8
[15]; [17]
  S. Flatsedge plant response rating: 0
[15]; Pre-emergence, Rate 1000 g/ha, scale 0 to 10 (0 no effect, 10 complete control)
  S. Flatsedge plant response rating: 0
[15]; [25]
  S. Flatsedge plant response rating: 0
[15]; [26]
  S. Flatsedge plant response rating: 0
[15]; [27]
  S. Flatsedge plant response rating: 0
[15]; [29]
  Plant response rating, S. Flatsedge: 0
[15]; [31]
  S. Flatsedge plant response rating: 0
[16]; [17]
  Velvetleaf plant response rating: 0
[16]; [18]
  Velvetleaf plant response rating: 0
[16]; [23]
  Plant response rating, Velvetleaf: 0
[16]; [19]
  Plant response rating, Velvetleaf: 0
[16]; [20]
  Plant response rating, Velvetleaf: 0
[16]; [21]
  Velvetleaf plant response rating: 0
[16]; [22]
  Velvetleaf plant response rating: 0
